Source: patent publication US8178688B2, “Benzamidine derivatives, process for the preparation thereof and pharmaceutical composition comprising the same” (Dong Wha Pharmaceutical Co., Ltd., priority 2004, dated 2012)

These molecules were tested on osteoclast differentiation (assay: Inhibitory effects on osteoclast differentiation (co-culture of bone marrow cells with osteoblast, TRAP staining)). Conditions: Mus musculus, Osteoclast, 168 h; 1 m; co-culture of bone marrow cells and osteoblast, 7 days, TRAP-positive osteoclasts versus controls; read-out: % inhibitory activity on osteoclastogenesis.
Assay type: cell-based, mice
Procedure: The effect of benzamidine derivatives of the present invention on osteoclast proliferation and differentiation process was evaluated via co-culture with osteoblast.
Tibia and Femora were aseptically ectomized from male ddY mice of 6-8 weeks to harvest bone marrow cells by using a syringe (21G, Korea Green Cross).
The bone marrow cells were suspended in 5 mL α-MEM medium (Gibco BRL Co.) containing sodium bicarbonate (2.0 g/L), streptomycin (100 mg/L) and penicillin ([…]). The harvested cells were centrifuged at 600×g for 5 mins to collect the whole quantity. To remove the red blood cells within bone marrow cells, 3 mL of Tris HCl (0.83% NH4Cl, pH7.5) was added and well mixed. After centrifuging above cells, the numbers of bone marrow cells were counted and then, the bone marrow cells were immediately used for co-culture system with osteoblast.
The calvaria were aseptically ectomized from neonate ICR mice of 1˜2 days, washed with PBS solution and incubated with a mixture of enzyme solution (0.2% collagenase and 0.1% dispase) at 37° C. gentle shaker. This procedure was sequentially repeated (10, 10, 10, 20, 20 and 20 mins), and then the calvaria cells having the characteristics of osteoblast mostly released from III-VI digestion groups were collected and washed with the medium (serum-free α-MEM). The washed cells were cultivated in α-MEM medium containing 10% FBS for 2˜3 days. After subculturing, these cells were used for this experiment, and diluted to reach the concentration of 1×10^6 cell/mL for storage at −70° C.
Benzamidine derivatives of the present invention were dissolved in a sterile distilled water or ethanol to make desired concentrations following dilution. The final volume of specimen added to the medium was determined at the ratio of 1:1000.
Bone marrow cells prepared, in the above and osteoblast from calvaria were co-cultured for osteoclast differentiation. Both bone marrow cells (25,000 cells/cm^2) and osteoblast (10,000 cells/cm^2) were plated on a 96 well plate in α-MEM medium containing FBS with specimen, and then cultured with test materials for 7 days. Differentiation factors, such as dexamethasone (10^−7M) and vitamin D3 (10^−8M), were also continuously added to the medium from the first day of cultivation. The medium was changed with fresh media containing a mixture of specimens and differentiation factors every 2˜3 day.
TRAP was used as a marker to measure osteoclast in consideration of its characteristics showing a positive reaction to TRAP staining solution. TRAP staining solution was prepared in a manner that 5 mg of naphtol AS-MS phosphate (sigma N-4875), a substrate and 25 mg of coloring agent (Fast Red Violet LB salt) were dissolved in N,N-dimethylformamide (about 0.5 mL), 0.1N NaHCO3 buffer solution (50 mL) containing 50 mM tartaric acid was added, and the reaction mixture was stored at refrigerator prior to use.
After culturing the cells for 7 days, the medium was removed from the wells, the cells were once washed with PBS solution and fixed to PBS containing 10% formalin for 2˜5 mins. The cells were fixed again in a mixed solution of ethanol and acetone (1/1) for about 1 min, and dried off. The cells were further treated by TRAP staining solution for 15 mins and washed with PBS. The experimental results were measured by counting the number of osteoclasts with 3 or more nuclei showing TRAP-positive reaction under a microscopic examination. Each of tests was confirmed over three times for gaining more reliable data.
As shown in the following table 7, the inhibitory effect of each experimental group on the differentiation of osteoclast versus controls was expressed by inhibitory percentage value.

Compared with `Cc1nc(-c2ccc(OCCCOc3ccc(C(=N)NO)cc3)cc2)c(C(C)C)s1` [Example 193, N-hydroxy-4-(3-[4-(5-isopropyl-2-methyl-1,3-thiazol-4-yl)phenoxy]propoxy)-benzamidine], `Cc1nc(-c2ccc(OCCOCCOc3ccc(C(=N)NO)cc3)cc2)c(C(C)C)s1` [Example 178, N-hydroxy-4-(2-[2-(4-(5-isopropyl-2-methyl-1,3-thiazol-4-yl)phenoxy)-ethoxy]-ethoxy)-benzamidine] is lower in inhibition at 1 µM: 54.1% for the first, 36.8% for the second.

First: N=C(NO)c1ccc(OCCCCCOc2ccc(-c3nc(N)sc3CCCl)cc2)cc1 [Example 77, N-hydroxy-4-(5-[4-(5-(2-chloroethyl)-2-amino-1,3-thiazol-4-yl)phenoxy]pentoxy)-benzamidine]
Second: N=C(NO)c1ccc(OCCCCCOc2ccc(-c3nc(-c4cccnc4)sc3CCCl)cc2)cc1 [Example 80, N-hydroxy-4-(5-[4-(5-(2-chloroethyl)-2-(pyridin-3-yl)-1,3-thiazol-4-yl)phenoxy]pentoxy)-benzamidine]
The inhibition at 1 µM of the first is lower: 83.3% for the first, 96.4% for the second.

Going from `CCCCc1sc(NC(=N)N)nc1-c1ccc(OCCCCCOc2ccc(C(=N)NO)cc2)cc1` [Example 64, N-hydroxy-4-(5-[4-(5-butyl-2-guanidino-1,3-thiazol-4-yl)phenoxy]pentoxy)-benzamidine] to `CCCCc1sc(N(C)CCO)nc1-c1ccc(OCCCCCOc2ccc(C(=N)NO)cc2)cc1` [Example 143, N-hydroxy-4-(5-[4-(5-butyl-2-((2-hydroxyethyl)-methyl-amino)-1,3-thiazol-4-yl)phenoxy]pentoxy)-benzamidine], the inhibition at 1 µM rises from 43.7% to 69.5%.

Compared with `CCCN(CCC)c1nc(-c2ccc(OCCCCCOc3ccc(C(=N)NO)cc3)cc2)c(CC2CCCC2)s1` [Example 149, N-hydroxy-4-(5-[4-(5-cyclopentylmethyl-2-dipropylamino-1,3-thiazol-4-yl)phenoxy]pentoxy)-benzamidine], `CCCN(CCC)c1nc(-c2ccc(OCCCCCOc3ccc(C(=N)NO)cc3)cc2)c(C(C)C)s1` [Example 157, N-hydroxy-4-(5-[4-(5-isopropyl-2-dipropylamino-1,3-thiazol-4-yl)phenoxy]pentoxy)-benzamidine] is higher in inhibition at 1 µM: 79.2% for the first, 92.3% for the second.

Going from `Cc1nc(-c2ccc(OCc3cccc(COc4ccc(C(=N)NO)cc4)c3)cc2)c(C(C)C)s1` [Example 209, N-hydroxy-4-(3-[4-(5-isopropyl-2-methyl-thiazol-4-yl)-phenoxymethyl]-benzyloxy)-benzamidine] to `Cc1nc(-c2ccc(OCC(C)NCCOc3ccc(C(=N)NO)cc3)cc2)c(C(C)C)s1` (centres unmarked) [Example 180, N-hydroxy-4-(2-[2-(4-(5-isopropyl-2-methyl-1,3-thiazol-4-yl)-phenoxy)-1-methyl-ethylamino]-ethoxy)-benzamidine], the inhibition at 1 µM rises from 14.3% to 32.6%.

First: CCNc1nc(-c2ccc(OCCCCCOc3ccc(C(=N)NO)cc3)cc2)c(CC)s1 [Example 97, N-hydroxy-4-(5-[4-(5-ethyl-2-ethylamino-1,3-thiazol-4-yl)phenoxy]pentoxy)-benzamidine]
Second: CCNc1nc(-c2ccc(OCCCCCOc3ccc(C(=N)NO)cc3)cc2)c(C(C)C)s1 [Example 104, N-hydroxy-4-(5-[4-(2-ethylamino-5-isopropyl-1,3-thiazol-4-yl)phenoxy]pentoxy)-benzamidine]
The inhibition at 1 µM of the first is higher: 42.6% for the first, 40% for the second.

First: COCCNc1nc(-c2ccc(OCCCCCOc3ccc(C(=N)NO)cc3)cc2)c(C)s1 [Example 94, N-hydroxy-4-(5-(4-(2-(2-methoxyethyl)amino-5-methyl-1,3-thiazol-4-yl)phenoxy]pentoxy)-benzamidine]
Second: Cc1sc(NC(=O)CO)nc1-c1ccc(OCCCCCOc2ccc(C(=N)NO)cc2)cc1 [Example 90, N-hydroxy-4-(5-[4-(2-hydroxyacetylamino-5-methyl-1,3-thiazol-4-yl)phenoxy]pentoxy)-benzamidine]
The inhibition at 1 µM of the first is higher: 77.2% for the first, 61.9% for the second.

First: CCN(CC)c1nc(-c2ccc(OCCCCCOc3ccc(C(=N)NO)cc3)cc2)c(C2CCCC2)s1 [Example 156, N-hydroxy-4-(5-[4-(5-cyclopentyl-2-diethylamino-1,3-thiazol-4-yl)phenoxy]pentoxy)-benzamidine]
Second: Cc1sc(N(C)CCN2CCOCC2)nc1-c1ccc(OCCCCCOc2ccc(C(=N)NO)cc2)cc1 [Example 123, N-hydroxy-4-(5-[4-(5-methyl-2-(methyl-(2-morpholinoethyl)-amino)-1,3-thiazol-4-yl)phenoxy]pentoxy)-benzamidine]
The inhibition at 1 µM of the first is lower: 15.6% for the first, 26.3% for the second.

First: CC(C)Cc1sc(N2CCOCC2)nc1-c1ccc(OCCCCCOc2ccc(C(=N)NO)cc2)cc1 [Example 173, N-hydroxy-4-[5-[4-(5-isobutyl-2-morpholin-4-yl-1,3-thiazol-4-yl)phenoxy]pentoxy)-benzamidine]
Second: C=Cc1sc(C)nc1-c1ccc(OCCCCCOc2ccc(C(=N)NO)cc2)cc1 [Example 74, N-hydroxy-4-(5-[4-(5-vinyl-2-methyl-1,3-thiazol-4-yl)phenoxy]pentoxy)-benzamidine]
The inhibition at 1 µM of the first is lower: 9% for the first, 92.6% for the second.

First: Cc1sc(N(CCO)CCO)nc1-c1ccc(OCCCCCOc2ccc(C(=N)NO)cc2)cc1 [Example 128, N-hydroxy-4-(5-[4-(2-(bis-(2-hydroxyethyl)-amino)-5-methyl-1,3-thiazol-4-yl)phenoxy]pentoxy)-benzamidine]
Second: CCS(=O)(=O)Nc1nc(-c2ccc(OCCCCCOc3ccc(C(=N)NO)cc3)cc2)cs1 [Example 85, N-hydroxy-4-(5-[4-(2-ethanesulfonylamino-1,3-thiazol-4-yl)phenoxy]pentoxy)-benzamidine]
The inhibition at 1 µM of the first is higher: 75.5% for the first, 5.3% for the second.

First: Cc1nc(-c2ccc(OCCCCCOc3ccc(C(=N)NO)cc3)cc2F)c(C(C)C)s1 [Example 191, N-hydroxy-4-(5-[3-fluoro-4-(5-isopropyl-2-methyl-1,3-thiazol-4-yl)-phenoxy]-pentoxy)-benzamidine]
Second: CC(C)c1sc(NCc2cccnc2)nc1-c1ccc(OCCCCCOc2ccc(C(=N)NO)cc2)cc1 [Example 114, N-hydroxy-4-(5-[4-(5-isopropyl-2-[(pyridin-3-yl-methyl)amino]-1,3-thiazol-4-yl)phenoxy]pentoxy)-benzamidine]
The inhibition at 1 µM of the first is lower: 8.8% for the first, 50.9% for the second.

Work on `CCCOc1cc(OCCCCCOc2ccc(C(=N)NO)cc2)c(CC)cc1-c1csc(C)n1` [Example 213, N-hydroxy-4-(5-[2-ethyl-4-(2-methyl-thiazol-4-yl)-5-propoxy-phenoxy]-pentyloxy)-benzamidine] yielded an inhibition at 1 µM of 91.8%.

Same assay, conditions: Mus musculus, Osteoclast, 168 h; 1 μm; co-culture of bone marrow cells and osteoblast, 7 days, TRAP-positive osteoclasts versus controls; read-out: % inhibitory activity on osteoclastogenesis

Compared with `CCCCc1sc(-c2ccccc2)nc1-c1ccc(OCCCCCOc2ccc(C(=N)NO)cc2)cc1` [Example 33, N-hydroxy-4-(5-[4-(5-butyl-2-phenyl-1,3-thiazol-4-yl)phenoxy]pentoxy)-benzamidine], `CC(C)c1sc(N)nc1-c1ccc(OCCCCCOc2ccc(C(=N)NO)cc2)cc1` [Example 61, N-hydroxy-4-(5-[4-(2-amino-5-isopropyl-1,3-thiazol-4-yl)phenoxy]pentoxy)-benzamidine] is lower in inhibition at 1 µM: 49.5% for the first, 0% for the second.

Same assay, conditions: co-culture of bone marrow cells and osteoblast, 7 days, TRAP-positive osteoclasts versus controls

With `N=C(NO)c1ccc(OCc2ccc(COc3ccc(-c4nc(N)sc4CC4CCCC4)cc3)cc2)cc1` [Example 203, N-hydroxy-4-(4-[4-(5-cyclopentylnnethyl-2-amino-thiazol-4-yl)-phenoxymethyl]-benzyloxy)-benzamidine] the “% inhibitory activity on osteoclastogenesis” value was 68.8%.
